# Where “and” joins values, the source holds several entries; their conditions need not be identical. Equal values may be shown once.
# Assays:
# [1] = test system: chlorine-resistant Methylobacterium strain; assay type: cell-based, Methylobacterium fujisawaense
# [2] = test system: chlorine-resistant Methylobacterium strain; assay type: cell-based, Methylobacterium fujisawaense; remark: listed apart in the source
smiles,measurement,setting,value
O=[O+][O-] [ozone],bactericidal rate,[1],0.0% and 9.4% and 2.1% and 5.0%
same,inner structure of cell body (electron microscope),[2],an organization is packed inside the cell body similarly to the blank

# — US20250320138A1 (priority 2022, published 2025)
